For assay [1], the target named is T1, human ACC1 (acetyl-coenzyme A carboxylase alpha transcript variant 1) (Homo sapiens, UniProt Q13085).
T1 construct: FLAG (C); made in house; host or cells: baculovirus-infected insect cells (Hi5)
Briefly: Human ACC1 enzyme assay, Assay B1 (ADP-Glo). Type of assay: biochemical. On the technique in general: ADP-Glo first removes unused ATP, then detects ADP through luciferase.

In another assay the test system is MCF7. Briefly: Cell proliferation assay (CellTiter-Glo, 96 h), MCF7. The assay is classed as cell-based. To be noted: Homo sapiens, MCF7; Table 7; 96-hour incubation. Summed up: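 Tumour cells are plated overnight, a baseline luminescence plate is read, and parallel plates receive compound for 96 hours at 37° C. before CellTiter-Glo measurement. Percent inhibition uses baseline-subtracted values relative to untreated cells.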
On the technique in general: In ATP-based viability assays light output follows the ATP content of the culture.

In assay [2] the target is human ACC2 (acetyl-coenzyme A carboxylase 2) (Homo sapiens, UniProt O00763). Briefly: Human ACC2 enzyme assay, Assay B2 (ADP-Glo).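 Further: human ACC2 activity read as ADP product, detected by luciferase glow luminescence after residual ATP removal, enzyme near 2 ng/µl in linear range, detection steps at 22 °C.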
The target in another assay is recombinant human ACC1 (Homo sapiens, UniProt Q13085). Briefly: Human ACC1 enzyme assay, Assay A1 (HTRF ADP immunoassay).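 Further: ADP generated by the enzyme quantified via competitive time-resolved FRET, read as europium cryptate to d2 energy transfer after 1 h at 22 °C with labelled ADP tracer and anti-ADP antibody.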 In general terms: Time-resolved FRET reads energy transfer from a long-lived donor to a nearby acceptor.
Assay [3] has as its target acetyl-CoA carboxylase 2 (ACC2) (Homo sapiens, UniProt O00763). The experiment in a line: Human ACC2 enzyme assay, Assay A2 (HTRF ADP immunoassay).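 Further: ADP generated by ACC2 quantified via competitive time-resolved FRET between europium cryptate anti-ADP antibody and d2-tagged ADP, enzyme kept in linear range near 0.6 ng/µl.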
Protocol: The inhibitory activity of the substances of this invention with regard to acetyl-CoA carboxylase 2 (ACC2) was measured using the ACC2 assay described in the paragraphs below. The basic principle of the assay is the measurement of adenosine diphosphate (ADP), which is formed as a by-product, by means of an HTRF®-based competitive immunoassay (HTRF=Homogeneous Time Resolved Fluorescence).
The amount of complex of d2-labelled ADP and europium cryptate-labelled anti-ADP antibody was then determined by measuring the resonance energy transfer of europium cryptate to d2.
Setting [4] is: Assay B1, read-out: ACC 1 (=B1) IC50.

Structures are written as SMILES. Read-outs that look alike come from different tables or passages of the source.

Chain of human ACC2 (acetyl-coenzyme A carboxylase 2) (O00763 27-2458 limits assumed): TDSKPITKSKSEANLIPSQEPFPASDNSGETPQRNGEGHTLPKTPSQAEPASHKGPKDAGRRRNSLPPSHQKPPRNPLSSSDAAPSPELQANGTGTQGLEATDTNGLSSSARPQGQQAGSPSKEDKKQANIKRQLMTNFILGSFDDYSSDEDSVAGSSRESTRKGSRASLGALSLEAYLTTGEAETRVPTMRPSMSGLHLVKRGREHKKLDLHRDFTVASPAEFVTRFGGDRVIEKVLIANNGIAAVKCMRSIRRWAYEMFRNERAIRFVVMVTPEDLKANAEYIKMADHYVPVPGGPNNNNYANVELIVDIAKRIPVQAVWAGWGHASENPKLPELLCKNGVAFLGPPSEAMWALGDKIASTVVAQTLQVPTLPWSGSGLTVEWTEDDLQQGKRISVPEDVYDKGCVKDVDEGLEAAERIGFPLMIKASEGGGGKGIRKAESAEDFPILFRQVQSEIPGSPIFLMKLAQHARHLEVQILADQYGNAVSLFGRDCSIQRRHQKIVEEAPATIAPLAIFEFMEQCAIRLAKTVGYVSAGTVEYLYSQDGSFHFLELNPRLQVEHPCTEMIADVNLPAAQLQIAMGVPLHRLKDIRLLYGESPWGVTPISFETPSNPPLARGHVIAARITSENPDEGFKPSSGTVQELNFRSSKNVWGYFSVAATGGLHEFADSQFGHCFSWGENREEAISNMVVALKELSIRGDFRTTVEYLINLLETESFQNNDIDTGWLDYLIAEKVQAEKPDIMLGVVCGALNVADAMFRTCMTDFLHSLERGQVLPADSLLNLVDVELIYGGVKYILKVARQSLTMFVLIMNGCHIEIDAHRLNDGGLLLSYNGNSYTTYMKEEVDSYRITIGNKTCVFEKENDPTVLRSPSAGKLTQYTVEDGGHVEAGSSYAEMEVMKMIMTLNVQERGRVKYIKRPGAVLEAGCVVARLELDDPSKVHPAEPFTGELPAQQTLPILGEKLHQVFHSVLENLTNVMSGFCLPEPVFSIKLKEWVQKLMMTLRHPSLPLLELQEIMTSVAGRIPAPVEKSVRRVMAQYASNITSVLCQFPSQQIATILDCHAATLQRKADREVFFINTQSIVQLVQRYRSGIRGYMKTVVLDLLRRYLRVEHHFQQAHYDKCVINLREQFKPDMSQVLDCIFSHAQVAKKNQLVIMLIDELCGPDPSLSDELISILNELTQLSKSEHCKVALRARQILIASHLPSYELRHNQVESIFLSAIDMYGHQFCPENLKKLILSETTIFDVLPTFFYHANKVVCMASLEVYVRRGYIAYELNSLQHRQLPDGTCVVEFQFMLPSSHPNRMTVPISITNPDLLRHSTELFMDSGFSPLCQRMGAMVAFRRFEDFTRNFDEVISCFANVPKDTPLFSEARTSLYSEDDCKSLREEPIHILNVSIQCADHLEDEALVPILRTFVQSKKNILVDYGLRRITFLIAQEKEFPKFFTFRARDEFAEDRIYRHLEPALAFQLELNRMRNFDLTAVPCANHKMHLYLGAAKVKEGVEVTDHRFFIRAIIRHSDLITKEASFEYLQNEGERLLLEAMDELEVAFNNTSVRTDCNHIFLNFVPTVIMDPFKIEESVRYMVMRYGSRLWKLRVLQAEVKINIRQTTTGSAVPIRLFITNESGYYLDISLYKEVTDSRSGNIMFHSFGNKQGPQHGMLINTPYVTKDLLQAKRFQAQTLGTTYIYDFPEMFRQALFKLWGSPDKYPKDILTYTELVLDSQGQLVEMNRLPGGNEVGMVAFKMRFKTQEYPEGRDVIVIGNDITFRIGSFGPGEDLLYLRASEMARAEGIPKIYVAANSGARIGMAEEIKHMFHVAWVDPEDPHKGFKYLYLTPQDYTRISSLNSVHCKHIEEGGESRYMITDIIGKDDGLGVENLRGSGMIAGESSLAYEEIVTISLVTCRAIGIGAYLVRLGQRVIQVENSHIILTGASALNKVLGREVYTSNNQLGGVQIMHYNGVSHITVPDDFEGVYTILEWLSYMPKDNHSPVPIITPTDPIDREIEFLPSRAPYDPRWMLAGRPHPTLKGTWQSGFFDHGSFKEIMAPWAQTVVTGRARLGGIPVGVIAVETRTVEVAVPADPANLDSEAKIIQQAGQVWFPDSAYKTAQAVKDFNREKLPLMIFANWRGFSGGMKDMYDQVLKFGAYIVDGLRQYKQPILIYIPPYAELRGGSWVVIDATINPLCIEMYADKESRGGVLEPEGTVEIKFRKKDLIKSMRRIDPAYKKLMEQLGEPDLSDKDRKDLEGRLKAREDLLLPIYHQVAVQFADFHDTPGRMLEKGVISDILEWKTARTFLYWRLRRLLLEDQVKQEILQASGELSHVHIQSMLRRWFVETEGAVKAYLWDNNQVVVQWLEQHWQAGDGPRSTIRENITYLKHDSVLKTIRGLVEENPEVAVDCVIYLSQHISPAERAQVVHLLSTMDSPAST
Chain of acetyl-CoA carboxylase 2 (ACC2) (O00763 39-2458 limits assumed): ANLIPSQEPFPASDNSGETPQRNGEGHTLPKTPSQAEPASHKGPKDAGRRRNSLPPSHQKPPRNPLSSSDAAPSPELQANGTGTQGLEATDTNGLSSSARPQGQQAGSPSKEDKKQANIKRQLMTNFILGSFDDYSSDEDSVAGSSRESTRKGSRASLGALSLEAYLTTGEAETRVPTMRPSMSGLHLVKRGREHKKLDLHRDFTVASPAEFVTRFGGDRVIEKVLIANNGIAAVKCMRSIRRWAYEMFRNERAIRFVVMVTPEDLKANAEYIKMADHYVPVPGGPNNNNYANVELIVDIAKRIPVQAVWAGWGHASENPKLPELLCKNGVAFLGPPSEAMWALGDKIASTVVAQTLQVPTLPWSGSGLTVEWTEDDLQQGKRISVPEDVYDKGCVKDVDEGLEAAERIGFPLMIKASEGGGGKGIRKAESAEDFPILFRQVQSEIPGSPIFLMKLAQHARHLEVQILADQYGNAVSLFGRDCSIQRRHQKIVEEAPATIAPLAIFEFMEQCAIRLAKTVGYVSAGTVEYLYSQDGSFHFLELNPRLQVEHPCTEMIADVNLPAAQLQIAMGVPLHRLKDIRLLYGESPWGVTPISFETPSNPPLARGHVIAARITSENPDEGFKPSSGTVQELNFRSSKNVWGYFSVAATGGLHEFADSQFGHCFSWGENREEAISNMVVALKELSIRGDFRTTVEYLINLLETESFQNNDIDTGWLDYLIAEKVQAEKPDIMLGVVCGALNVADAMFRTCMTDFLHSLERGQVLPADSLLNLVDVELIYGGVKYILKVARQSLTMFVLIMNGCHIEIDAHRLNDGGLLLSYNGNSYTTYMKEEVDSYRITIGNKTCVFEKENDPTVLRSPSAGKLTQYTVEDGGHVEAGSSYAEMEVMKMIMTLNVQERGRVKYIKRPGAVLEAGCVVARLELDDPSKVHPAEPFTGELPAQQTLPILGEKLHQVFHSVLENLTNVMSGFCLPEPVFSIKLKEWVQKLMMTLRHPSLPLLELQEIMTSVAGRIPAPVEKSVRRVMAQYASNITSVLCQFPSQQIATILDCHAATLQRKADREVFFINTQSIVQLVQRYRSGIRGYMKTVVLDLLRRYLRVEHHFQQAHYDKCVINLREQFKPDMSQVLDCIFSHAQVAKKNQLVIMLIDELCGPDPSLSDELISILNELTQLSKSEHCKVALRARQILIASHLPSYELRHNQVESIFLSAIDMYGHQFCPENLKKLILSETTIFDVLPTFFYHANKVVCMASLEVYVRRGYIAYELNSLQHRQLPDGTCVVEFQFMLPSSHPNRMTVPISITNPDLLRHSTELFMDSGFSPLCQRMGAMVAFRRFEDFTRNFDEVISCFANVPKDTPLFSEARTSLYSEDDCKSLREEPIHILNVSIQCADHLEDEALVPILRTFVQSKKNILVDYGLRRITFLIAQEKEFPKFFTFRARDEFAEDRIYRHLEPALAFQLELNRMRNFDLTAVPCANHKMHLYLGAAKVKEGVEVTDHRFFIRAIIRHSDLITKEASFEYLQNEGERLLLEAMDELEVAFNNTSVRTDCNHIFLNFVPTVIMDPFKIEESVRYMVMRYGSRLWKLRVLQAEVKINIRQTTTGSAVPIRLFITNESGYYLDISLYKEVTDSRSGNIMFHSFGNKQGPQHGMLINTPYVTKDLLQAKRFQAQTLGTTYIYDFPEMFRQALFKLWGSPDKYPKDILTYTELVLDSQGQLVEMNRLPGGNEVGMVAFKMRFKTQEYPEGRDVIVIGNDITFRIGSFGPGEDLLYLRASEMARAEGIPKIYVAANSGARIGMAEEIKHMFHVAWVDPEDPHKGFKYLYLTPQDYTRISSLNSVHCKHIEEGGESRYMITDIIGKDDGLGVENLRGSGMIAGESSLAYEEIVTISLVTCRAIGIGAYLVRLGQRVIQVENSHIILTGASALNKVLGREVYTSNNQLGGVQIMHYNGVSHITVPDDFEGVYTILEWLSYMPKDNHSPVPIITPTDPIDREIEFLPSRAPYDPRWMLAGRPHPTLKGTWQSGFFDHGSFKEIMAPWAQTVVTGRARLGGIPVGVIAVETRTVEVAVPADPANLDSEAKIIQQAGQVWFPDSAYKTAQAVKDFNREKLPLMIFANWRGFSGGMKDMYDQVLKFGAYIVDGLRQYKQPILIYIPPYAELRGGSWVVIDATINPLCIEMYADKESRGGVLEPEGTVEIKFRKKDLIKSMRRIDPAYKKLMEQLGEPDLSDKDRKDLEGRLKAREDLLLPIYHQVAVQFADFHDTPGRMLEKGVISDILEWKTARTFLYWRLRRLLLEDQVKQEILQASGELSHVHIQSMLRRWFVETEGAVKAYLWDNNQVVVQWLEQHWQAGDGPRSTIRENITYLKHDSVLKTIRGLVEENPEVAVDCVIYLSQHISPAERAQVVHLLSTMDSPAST

A word on the IC50: it is the concentration that gives 50% inhibition. Take `Cc1cc(F)c(-c2ccc(Cl)cc2)cc1C1=C(O)C2(CCC(C(F)(F)F)CC2)NC1=O` (mixture of isomers) [1-100, 3-(4′-Chloro-6-fluoro-4-methylbiphenyl-3-yl)-4-hydroxy-8-(trifluoromethyl)-1-azaspiro[4.5]dec-3-en-2-one]: the IC50 in assay [1] was determined as 96 nM; in the assay on MCF7, 127 nM; in assay [2], 2470 nM; at recombinant human ACC1 it was 91 nM; in assay [3] it was 988 nM.
Take `O=C1N[C@]2(CC[C@@H](C(F)(F)F)CC2)C(O)=C1c1cc(-c2ccc(F)c(F)c2)ccc1Cl` [1-99, (5s,8s)-3-(4 Chloro-3′,4′-difluorobiphenyl-3-yl)-4-hydroxy-8-(trifluoromethyl)-1-azaspiro[4.5]dec-3-en-2-one]: the IC50 in assay [1] worked out at 207 nM; with MCF7 it was 120 nM; in assay [2] it was 11300 nM; at recombinant human ACC1, 327 nM; in assay [3] it was 6670 nM.
Turning to `Cc1ccc(-c2ccc(F)c(F)c2)cc1C1=C(O)[C@]2(CC[C@](O)(C(F)(F)F)CC2)NC1=O` [1-124, (5r,8r)-3-(3′,4′-Difluoro-4-methylbiphenyl-3-yl)-4,8-dihydroxy-8-(trifluoromethyl)-1-azaspiro[4.5]dec-3-en-2-one], the IC50 in assay [1] (setting [4]) is 467 nM; in the assay on MCF7, 1700 nM; in assay [2], above 20000 nM; at recombinant human ACC1, 458 nM; in assay [3], above 20000 nM.
With `Cc1ccc(-c2ccc(Cl)c(F)c2)c(C)c1C1=C(O)[C@]2(CC[C@H](C(F)(F)F)CC2)NC1=O` [1-93, (5s,8s)-3-(4′-Chloro-3′-fluoro-2,4-dimethylbiphenyl-3-yl)-4-hydroxy-8-(trifluoromethyl)-1-azaspiro[4.5]dec-3-en-2-one], the half-inhibitory concentration (IC50) in assay [1] amounted to 217 nM; with MCF7, 78 nM; in assay [2] it was 4010 nM; at recombinant human ACC1, 301 nM; in assay [3] it was 876 nM.
Take `Cc1c(F)cc(-c2ccc(F)c(F)c2)cc1C1=C(O)[C@]2(CC[C@H](C(F)(F)F)CC2)NC1=O` [1-96, (5s,8s)-4-Hydroxy-8-(trifluoromethyl)-3-(3′,4′,5-trifluoro-4-methylbiphenyl-3-yl)-1-azaspiro[4.5]dec-3-en-2-one]: the IC50 in assay [1] (setting [4]) was 238 nM; in the assay with MCF7 it was 108 nM; in assay [2], above 20000 nM; on recombinant human ACC1 it was 416 nM; in assay [3], above 20000 nM.
On to `Cc1cc(C)c(-c2ccc(Cl)cc2)cc1C1=C(O)[C@]2(CC[C@H](C(F)(F)F)CC2)NC1=O` [1-98, (5s,8s)-3-(4′-Chloro-4,6-dimethylbiphenyl-3-yl)-4-hydroxy-8-(trifluoromethyl)-1-azaspiro[4.5]dec-3-en-2-one], for which the IC50 turned out to be 1040 nM in assay [1]; 99 nM in the assay with MCF7; 174 nM in assay [2]; 2190 nM at recombinant human ACC1; 204 nM in assay [3].
Regarding `Cc1ccc(-c2ccc(Cl)cc2)cc1C1=C(O)[C@@]2(CCC[C@H](C(F)(F)F)C2)NC1=O` [1-133, (5S,7S)-3 (4′-Chloro-4 methylbiphenyl-3-yl)-4-hydroxy-7-(trifluoromethyl)-1-azaspiro[4.5]dec-3-en-2-one], the IC50 in assay [1] (setting [4]) came to 142 nM; with MCF7 it was 75 nM; in assay [2], 8100 nM; on recombinant human ACC1, 329 nM; in assay [3], 2870 nM.
Turning to `COC[C@H]1CC[C@]2(CC1)NC(=O)C(c1cc(-c3ccc(Cl)c(F)c3)ccc1Cl)=C2O` [1-113, (5s,8s)-3-(4,4′-Dichloro-3′-fluorobiphenyl-3-yl)-4-hydroxy-8-(methoxymethyl)-1-azaspiro[4.5]dec-3-en-2-one], the IC50 came out at 101 nM in assay [1]; 46 nM with MCF7; 2710 nM in assay [2]; 260 nM at recombinant human ACC1; 1350 nM in assay [3].
For the compound `Cc1ccc(-c2ccc(Cl)c(F)c2)cc1C1=C(O)[C@]2(CC[C@](O)(C(F)(F)F)CC2)NC1=O` [1-123, (5r,8r)-3-(4′-Chloro-3′-fluoro-4-methylbiphenyl-3-yl)-4,8-dihydroxy-8-(trifluoromethyl)-1-azaspiro[4.5]dec-3-en-2-one], the IC50 was determined as 562 nM in assay [1] (setting [4]); 309 nM in the assay on MCF7; 11200 nM in assay [2]; 173 nM at recombinant human ACC1; 3440 nM in assay [3].
Turning to `Cc1ccc(-c2ccc(F)c(F)c2)cc1C1=C(O)C2(CCCCC2)NC1=O` [1-115, 3-(3′,4′-Difluoro-4-methylbiphenyl-3-yl)-4-hydroxy-1-azaspiro[4.5]dec-3-en-2-one], the IC50 was 196 nM in assay [1]; 98 nM in the assay on MCF7; 10300 nM in assay [2]; 314 nM at recombinant human ACC1; 5040 nM in assay [3].
For `COCC[C@H]1CC[C@]2(CC1)NC(=O)C(c1cc(-c3ccc(Cl)c(F)c3)ccc1C)=C2O` [1-114, (5s,8s)-3-(4′-Chloro-3′-fluoro-4-methylbiphenyl-3-yl)-4-hydroxy-8-(2-methoxyethyl)-1-azaspiro[4.5]dec-3-en-2-one], the IC50 stood at 113 nM in assay [1] (setting [4]); 43 nM in the assay with MCF7; 1640 nM in assay [2]; 236 nM at recombinant human ACC1; 2210 nM in assay [3].
As to `CO[C@H]1CC[C@]2(CC1)NC(=O)C(c1cc(-c3ccc(Cl)cc3Cl)ccc1C)=C2O` [1-143, (5s,8s)-3-(2′,4′-Dichloro-4-methylbiphenyl-3-yl)-4-hydroxy-8-methoxy-1-azaspiro[4.5]dec-3-en-2-one], the IC50 in assay [1] stood at 161 nM; in the assay with MCF7, 111 nM; in assay [2], 2150 nM; on recombinant human ACC1, 282 nM; in assay [3] it was 1020 nM.
Consider `Cc1ccc(-c2ccc(Cl)c(F)c2)cc1C1=C(O)[C@]2(CC[C@](O)(C(F)(F)C(F)(F)F)CC2)NC1=O` [1-130, (5r,8r)-3-(4′-Chloro-3′-fluoro-4-methylbiphenyl-3-yl)-4,8-dihydroxy-8-(pentafluoroethyl)-1-azaspiro[4.5]dec-3-en-2-one], for which the half-maximal inhibitory concentration (IC50) in assay [1] (setting [4]) was 108 nM; in the assay on MCF7, 61 nM; in assay [2], 5890 nM; at recombinant human ACC1 it was 133 nM; in assay [3], 4400 nM.
As to `CO[C@H]1CC[C@]2(CC1)NC(=O)C(c1cc(-c3ccc(Cl)cc3)c(F)cc1C)=C2O` [1-135, (5s,8s)-3-(4′-Chloro 6 fluoro 4-methylbiphenyl-3-yl)-4-hydroxy-8-methoxy-1-azaspiro[4.5]dec-3-en-2-one], the IC50 amounted to 94 nM in assay [1]; 171 nM with MCF7; 1750 nM in assay [2]; 220 nM on recombinant human ACC1; 657 nM in assay [3].
As for `COC[C@H]1CC[C@]2(CC1)NC(=O)C(c1cc(-c3ccc(Cl)c(F)c3)ccc1C)=C2O` [1-111, (5s,8s)-3-(4′-Chloro-3′-fluoro-4-methylbiphenyl-3-yl)-4-hydroxy-8-(methoxymethyl)-1-azaspiro[4.5]dec-3-en-2-one], the half-maximal inhibitory concentration (IC50) turned out to be 126 nM in assay [1] (setting [4]); 194 nM in the assay on MCF7; 1120 nM in assay [2]; 177 nM on recombinant human ACC1; 592 nM in assay [3].
The corresponding values for `CCO[C@H]1CC[C@@]2(CC1)NC(=O)C(c1cc(-c3ccc(Cl)cc3)ccc1C)=C2O` [1-147, (5r,8r)-3-(4′-Chloro-4 methylbiphenyl-3-yl)-8-ethoxy-4-hydroxy-1-azaspiro[4.5]dec-3-en-2-one] are 150 nM, 174 nM, 2030 nM, 195 nM and 1250 nM.

The values are drawn from patent US20130040935A1, “CYCLIC KETO-ENOLS FOR THERAPY” (BAYER INTELLECTUAL PROPERTY GMBH, priority 2010, published 2013).
